pIC50, pKd: −log10 of the molar value. Read-outs that look alike come from different tables or passages of the source.
Columns and labels:
[1] = target: T1, interaction of ICAM-1 with the Leukointegrin CD18/CD11a (LFA-1) (Homo sapiens, UniProt P05107+P20701); test: Assay to determine inhibition of LFA-1 binding to ICAM-1 (immunopurified LFA-1 on plate-bound sICAM-1, ELISA readout)
T1 construct: endogenous in cells; sICAM-1: made in house, secreted from transfected CHO DUX cells
Text: Assay to Determine Inhibition of LFA-1 Binding to ICAM-1 Purpose of Assay: This assay protocol is designed to study the direct antagonism, by a test compound, of the interaction of the CAM, ICAM-1 with the Leukointegrin CD18/CD11a (LFA-1). […] After collection and neutralization of fractions from the TS2/4 column, samples are pooled and precleared with Protein G agarose. […] Wells are washed 3 times with Diluting Buffer. The bound LFA-1 is detected by the addition of a polyclonal antibody directed against a peptide corresponding to the CD18 cytoplasmic tail in a 1:100 dilution with Diluting Buffer and 1% BSA and allowed to incubate for 45 min at 37° C. Wells are washed 3 times with Diluting Buffer and the bound polyclonal antibody is detected by the addition of a 1:4000 dilution of horse radish peroxidase conjugated to goat immunoglobulin directed against rabbit immunoglobulin. […] The lack of the addition of LFA-1 to the binding assay is used as a background control for all samples. A dose-response curve is obtained for all test compounds. Results of these tests are reported as Kd's in μM.

[2] = test system: cell bound form of LFA-1 (CD18, CD11a) with ICAM-1, SKW3 cells; test: Inhibition of SKW3 cell binding to ICAM-1 (PMA-stimulated); assay type: cell-based, human; details: read-out: Assay to Detect SKW3 Cells Binding to ICAM IC50
Text: (§1) Assay to Determine Inhibition of SKW3 cell binding to ICAM-1 vs. Binding to Fibronectin
(§2) This assay is used to test the selective ability of a test compound to antagonize the interaction of a cell bound form of LFA-1 with ICAM-1. The assay uses a human T cell line, SKW3 cells which express CD18, CD11a and other integrins not related to CD18, CD11a and which can be “activated” by phorbol esters. Phorbol esters enhance the affinity of CD18, CD11a for ICAM-1.
(§3) This same lymphocyte line, SKW3, also adheres to fibronectin in the presence of phorbol esters. This adhesion is mediated by membrane proteins independent of the LFA-1/ICAM-1 interaction. The SKW3 cells express another integrin, VLA4, which is the receptor for fibronectin. Therefore, as a preliminary indication of the selectivity of a test compounds to interfere with Leukointegrin/CAM interactions but not other integrin-ligand binding events, a compound can be tested for its ability to antagonize cell bound fibronectin receptor in its interaction with purified fibronectin. Compounds that inhibit this fibronectin adhesion are not specific antagonists of the CD18, CD11a/ICAM-1 binding.
(§4) Description of Assay Protocol:
(§5) Ninety-six well plates are coated with either sICAM-1(40 μg/mL) or fibronectin (100 μg/mL) in Diluting buffer for 1 h at room temperature. Added to the wells are 100 μL of the appropriately diluted test compound or 100 μL of RPMI with 15% fetal bovine serum as a control. SKW3 cells, which express CD18, CD11a and VLA4 (Dustin, M.; et al., J. Exp. Med. 1987, 165, 672-692) are washed and suspended to a concentration of 10^6 cells/mL in RPMI with 15% fetal bovine serum. Immediately before adding the cells to the wells, cells are stimulated with the phorbol ester 12-myristate 13-acetate (PMA) for a final concentration of […]. 100 μL of cells are then added to the wells resulting in a final concentration of […]. The plates are incubated for 2 h at 37° C. Unbound or loosely bound cells are gently washed away with RPMI.
(§6) Data are reported as the concentration or concentration range (in μM) at which 50% of binding is inhibited.

[3] = test system: cell bound fibronectin receptor (VLA4) with fibronectin, SKW3 cells; test: Inhibition of SKW3 cell binding to fibronectin (selectivity counter-assay); assay type: cell-based, human; details: for pIC50: read-out: Assay to Detect SKW3 Cells Binding to FIBRONECTIN IC50
Text: as §1, §2, §3, §4, §5, §6

[4] = test system: SKW3 cells
[5] = values marked e approximated from incomplete dose-response curve
[6] = Homo sapiens, SKW3, values marked c: no inhibition observed up to highest dose
[7] = values marked c: no inhibition observed up to highest dose
[8] = No inh = no inhibition observed up to highest dose, exact quantification not always possible due to intrinsic toxicity

T1 sequence (P20701 26-1170): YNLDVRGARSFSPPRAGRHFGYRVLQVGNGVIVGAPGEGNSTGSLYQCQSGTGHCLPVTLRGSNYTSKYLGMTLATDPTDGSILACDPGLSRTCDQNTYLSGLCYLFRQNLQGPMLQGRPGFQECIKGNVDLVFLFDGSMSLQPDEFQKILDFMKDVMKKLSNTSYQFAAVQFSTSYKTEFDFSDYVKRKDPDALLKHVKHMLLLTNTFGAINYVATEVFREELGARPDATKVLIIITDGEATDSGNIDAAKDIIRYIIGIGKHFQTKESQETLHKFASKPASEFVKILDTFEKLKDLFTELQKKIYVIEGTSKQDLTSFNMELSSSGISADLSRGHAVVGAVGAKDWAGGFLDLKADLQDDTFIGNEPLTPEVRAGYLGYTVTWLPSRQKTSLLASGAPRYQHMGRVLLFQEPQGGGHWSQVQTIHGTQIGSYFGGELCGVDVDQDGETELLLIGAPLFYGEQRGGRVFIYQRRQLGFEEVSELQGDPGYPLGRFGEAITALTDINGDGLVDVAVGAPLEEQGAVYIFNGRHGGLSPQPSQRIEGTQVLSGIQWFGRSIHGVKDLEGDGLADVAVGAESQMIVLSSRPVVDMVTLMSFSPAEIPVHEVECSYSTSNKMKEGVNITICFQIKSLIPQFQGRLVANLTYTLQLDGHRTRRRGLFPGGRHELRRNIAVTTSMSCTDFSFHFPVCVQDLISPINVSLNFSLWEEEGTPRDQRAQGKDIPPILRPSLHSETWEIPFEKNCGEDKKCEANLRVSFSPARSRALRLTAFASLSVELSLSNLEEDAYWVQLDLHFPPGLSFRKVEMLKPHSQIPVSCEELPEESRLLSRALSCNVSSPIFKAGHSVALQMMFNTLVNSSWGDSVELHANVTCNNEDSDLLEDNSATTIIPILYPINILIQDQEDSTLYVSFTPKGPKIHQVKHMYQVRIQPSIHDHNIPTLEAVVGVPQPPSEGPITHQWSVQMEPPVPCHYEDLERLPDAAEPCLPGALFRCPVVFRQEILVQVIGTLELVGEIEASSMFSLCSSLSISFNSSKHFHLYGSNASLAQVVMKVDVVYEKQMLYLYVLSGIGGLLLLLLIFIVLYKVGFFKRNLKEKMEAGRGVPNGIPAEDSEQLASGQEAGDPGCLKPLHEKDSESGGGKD
T1 sequence (P05107 23-769): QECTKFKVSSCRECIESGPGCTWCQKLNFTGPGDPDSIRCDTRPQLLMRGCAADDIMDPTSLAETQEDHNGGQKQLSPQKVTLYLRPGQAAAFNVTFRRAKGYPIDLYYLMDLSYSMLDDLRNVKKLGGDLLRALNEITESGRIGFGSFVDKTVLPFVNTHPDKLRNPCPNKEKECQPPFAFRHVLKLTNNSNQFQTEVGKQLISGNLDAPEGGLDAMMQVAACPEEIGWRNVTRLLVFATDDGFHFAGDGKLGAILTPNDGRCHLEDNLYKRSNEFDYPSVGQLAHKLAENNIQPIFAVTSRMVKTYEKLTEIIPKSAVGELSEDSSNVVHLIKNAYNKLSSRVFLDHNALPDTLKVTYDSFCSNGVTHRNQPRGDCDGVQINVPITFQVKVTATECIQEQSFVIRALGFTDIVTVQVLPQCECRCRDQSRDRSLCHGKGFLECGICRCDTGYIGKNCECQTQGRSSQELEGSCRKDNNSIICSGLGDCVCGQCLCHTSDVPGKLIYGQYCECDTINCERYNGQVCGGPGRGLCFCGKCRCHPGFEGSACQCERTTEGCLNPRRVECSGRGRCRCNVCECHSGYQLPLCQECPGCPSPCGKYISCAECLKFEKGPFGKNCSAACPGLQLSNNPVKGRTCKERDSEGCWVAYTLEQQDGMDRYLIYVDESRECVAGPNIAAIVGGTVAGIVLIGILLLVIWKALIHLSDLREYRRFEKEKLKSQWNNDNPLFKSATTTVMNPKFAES

SMILES	pKd [1, 5]	pIC50 [2, 6]	pIC50 [3, 6]	Cellular Toxicity Assay MTT LD50 [4] [µM]	Assay to Detect SKW3 Cells Binding to FIBRONECTIN IC50 [3, 7]	pIC50 [2, 7]	pIC50 [3, 7]	pKd [1]	pIC50 ([2]; Homo sapiens, SKW3)	Assay to Detect SKW3 Cells Binding to FIBRONECTIN IC50 [3, 8]	pIC50 ([3]; Homo sapiens, SKW3, No inh = no inhibition observed up to highest dose, exact quantification not always possible due to intrinsic toxicity)
C[C@@]1(Cc2ccccc2)NC(=O)N(c2cc(Cl)cc(Cl)c2)C1=O [Example 2]	4.84	< 4.00	< 4.00	125 to 250	–	–	–	–	–	–	–
O=C1NC(Cc2ccc([N+](=O)[O-])cc2)C(=O)N1c1cc(Cl)cc(Cl)c1 (centres unmarked) [Example 7]	5.88	4.00 to 4.30	–	250 to 500	No inh^c	–	–	–	–	–	–
O=C1N[C@@H](Cc2ccccc2)C(=O)N1c1cc(Cl)cc(Cl)c1 [Example 14]	4.90	3.90 to 4.20	< 3.90	125 to 250	–	–	–	–	–	–	–
CC1(Cc2ccccc2)NC(=O)N(c2cc(C(F)(F)F)cc(C(F)(F)F)c2)C1=O (centres unmarked) [Example 16]	6.07	4.42 to 4.72	< 4.12	63 to 125	–	–	–	–	–	–	–
O=C1NC(Cc2ccc3ccccc3c2)C(=O)N1c1cc(Cl)cc(Cl)c1 (centres unmarked) [Example 17]	5.52	< 4.20	–	125	No inh^c	–	–	–	–	–	–
O=C1NC(Cc2ccccc2)C(=O)N1c1cc(Cl)cc(Cl)c1 (centres unmarked) [Example 20]	5.75	4.80	3.90 to 4.20	125 to 250	–	–	–	–	–	–	–
C[C@H](c1ccccc1)[C@H]1NC(=O)N(c2cc(Cl)cc(Cl)c2)C1=O [Example 21]	6.16	> 4.80	3.60 to 3.90	125 to 250	–	–	–	–	–	–	–
C[C@@H](c1ccccc1)[C@H]1NC(=O)N(c2cc(Cl)cc(Cl)c2)C1=O [Example 22]	6.40	> 4.80	–	125 to 250	No inh^c	–	–	–	–	–	–
O=C1NC(Cc2ccc([N+](=O)[O-])cc2)C(=O)N1c1cc(Cl)cc(Cl)c1 (centres unmarked) [Example 24]	6.07	–	–	>400	No inh^c	< 4.22	–	–	–	–	–
CC1(Cc2c[nH]c3ccccc23)NC(=O)N(c2cc(Cl)cc(Cl)c2)C1=O (centres unmarked) [Example 28]	5.59	–	–	100 to 200	No inh^c	–	–	–	–	–	–
O=C1CC(Cc2ccccc2)C(=O)N1c1cc(Cl)cc(Cl)c1 (centres unmarked) [Example 76]	5.63	3.52 to 3.82	< 3.52	>500	–	–	–	–	–	–	–
CN1C(=O)N(c2cc(Cl)cc(Cl)c2)C(=O)C1Cc1ccccc1 (centres unmarked) [Example 82]	5.68	3.90 to 4.20	< 3.60	250 to 500	–	–	–	–	–	–	–
C[C@H](c1ccccc1)[C@@H]1C(=O)N(c2cc(Cl)cc(Cl)c2)C(=O)N1C [Example 85]	6.14	4.42 to 4.72	< 4.12	>500	–	–	–	–	–	–	–
C[C@@H](c1ccccc1)[C@@H]1C(=O)N(c2cc(Cl)cc(Cl)c2)C(=O)N1C [Example 86]	6.28	4.42 to 4.72	< 4.12	>500	–	–	–	–	–	–	–
CN1C(=O)N(c2cc(C(F)(F)F)cc(C(F)(F)F)c2)C(=O)C1(C)Cc1ccccc1 (centres unmarked) [Example 88]	6.39	–	–	250 to 500	–	4.42 to 4.72	< 4.12	–	–	–	–
CCN1C(=O)N(c2cc(Cl)cc(Cl)c2)C(=O)C1(C)Cc1ccccc1 (centres unmarked) [Example 89]	6.54	4.30	–	500	No inh^c	–	–	–	–	–	–
CCCN1C(=O)N(c2cc(Cl)cc(Cl)c2)C(=O)C1(C)Cc1ccccc1 (centres unmarked) [Example 90]	6.14	4.00 to 4.30	–	>500	No inh^c	–	–	–	–	–	–
CC(=O)N1C(=O)N(c2cc(Cl)cc(Cl)c2)C(=O)C1(C)Cc1ccccc1 (centres unmarked) [Example 96]	6.34	4.30	–	100 to 200	No inh^c	–	–	–	–	–	–
C[C@@]1(Cc2ccc([N+](=O)[O-])cc2)C(=O)N(c2cc(Cl)cc(Cl)c2)C(=O)N1S(C)(=O)=O [Example 136]	6.72	6.00 to 6.22	–	150 to 300	No inh^c	–	–	–	–	–	–
CN1C(=O)N(c2cc(Cl)cc(Cl)c2)C(=O)C1(C)Cc1ccc(Br)cc1 (centres unmarked) [Example 138]	–	5.22	–	250 to 500	No inh^c	–	–	–	–	–	–
CN1C(=O)N(c2cc(Cl)cc(Cl)c2)C(=O)[C@@]1(C)Cc1ccc(-c2ccncc2)cc1 [Example 189]	6.72	5.92 to 6.22	–	63	No inh^c	–	–	–	–	–	–
C[C@@]1(Cc2ccc(Br)cc2)C(=O)N(c2cc(Cl)cc(Cl)c2)C(=O)N1C(=O)CO [Example 231]	–	–	–	40 to 80	–	–	–	6.57	5.30 to 5.70	No inh^c	–
C[C@@]1(Cc2ccc(Br)cc2)C(=O)N(c2cc(Cl)cc(Cl)c2)C(=O)N1CCCCN [Example 241]	–	–	–	9 to 18	–	–	–	7.00	5.80 to 6.10	–	4.89
C[C@@]1(Cc2ccc(Br)cc2)C(=O)N(c2cc(Cl)cc(Cl)c2)C(=O)N1CCCCCS(=O)(=O)O [Example 251]	–	–	–	100 to 200	–	–	–	7.22	> 6.30	No inh^c	–
C[C@H](c1ccccc1)[C@]1(C)C(=O)N(c2cc(Cl)cc(Cl)c2)C(=O)N1C [Example 269]	–	–	–	250 to 500	–	–	–	6.54	4.60	No inh^c	–
CN1C(=O)N(c2cc(Cl)cc(Cl)c2)C(=O)[C@]1(C)Cc1ccc(Br)cc1 [Example 272]	–	–	–	250 to 500	–	–	–	–	4.00 to 4.30	No inh^c	–
